Laboratory results taken from patent US4179433A, “Angiotensin II antagonist peptides containing an alpha-aminooxyacid in the position-1” (Richter Gedeon Vegyeszeti Gyar Rt., priority 1977, dated 1979).

Test system: narcoticized male cats
Assay: Decrease in arterial blood pressure after intravenous administration, under i.v. infusion of angiotensin II
Format: in vivo, cat
Conditions: single dose, angiotensin II infusion 0.5 μg/kg/min, average of 6 experiments
Method: The antagonistic activity of the compounds having the formula I was tested on narcoticized male cats. The blood pressure was measured on the cervical artery. The tests were performed by introducing a Hypertension (CIBA) infusion into a lateral femoral vane at a speed of 0.5 μg/kg/min. When the increase in blood pressure was stabilized, the aqueous, physiological or carrier-containing solutions of the test compounds and Saralasin were administered in a single dose, intravenously or subcutaneously, and the decrease in blood pressure was measured. In the Table I the decrease in the arterial blood pressure under the influence of an intravenous administration of the test compounds is illustrated. For comparison Saralasin is used. The data set forth in the Table 1 were obtained by calculating the average of the results of 6 experiments. The margins of error indicate the scatter of the main value.

CNCC(=O)N[C@@H](CCCN=C(N)N)C(=O)N[C@H](C(=O)N[C@@H](Cc1ccc(O)cc1)C(=O)N[C@H](C(=O)N[C@@H](Cc1cnc[nH]1)C(=O)N1CCC[C@H]1C(=O)N[C@@H](C)C(=O)O)C(C)C)C(C)C [Saralasin]
Decrease in blood pressure (mmHg) after administration of 10 μg/kg i.v. doses: -41±2.5 mmHg
